What was measured:
BaF3 [1] = details: Homo sapiens
Description: Inhibition of BCR/ABL p210-F317I mutant (unknown origin) expressed in mouse BA/F3 cells assessed as growth inhibition after 72 hrs by CellTiter-Glo or CCK-8 assay

MV4-11 = assay: Antiproliferative activity against human MV4-11 cells assessed as cell viability after 72 hrs by CellTiter-Glo or CCK-8 assay; format: functional; details: MV4-11, 72 h
[2] = target: Tyrosine-protein kinase HCK (Homo sapiens) (UniProt P08631); details: BaF3
Description: Inhibition of TEL-HCK (unknown origin) expressed in mouse BA/F3 cells assessed as growth inhibition after 72 hrs by CellTiter-Glo or CCK-8 assay

[3] = target: Epithelial discoidin domain-containing receptor 1 (Homo sapiens, UniProt Q08345); details: BaF3
Description: Inhibition of TEL-DDR1 (unknown origin) expressed in mouse BA/F3 cells assessed as growth inhibition after 72 hrs by CellTiter-Glo or CCK-8 assay

[4] = Antiproliferative activity against mouse BA/F3 cells assessed as cell viability after 72 hrs by CellTiter-Glo or CCK-8 assay; format: cell-based, BaF3
[5] = Antiproliferative activity against human KU812 cells assessed as cell viability after 72 hrs by CellTiter-Glo or CCK-8 assay; format: functional; details: KU812, 72 h
[6] = Antiproliferative activity against human MEG01 cells assessed as cell viability after 72 hrs by CellTiter-Glo or CCK-8 assay; format: functional; details: MEG-01, 72 h
[7] = target: T1, Discoidin domain-containing receptor 2 (Homo sapiens) (UniProt Q16832); details: BaF3
T1 sequence (whole entry): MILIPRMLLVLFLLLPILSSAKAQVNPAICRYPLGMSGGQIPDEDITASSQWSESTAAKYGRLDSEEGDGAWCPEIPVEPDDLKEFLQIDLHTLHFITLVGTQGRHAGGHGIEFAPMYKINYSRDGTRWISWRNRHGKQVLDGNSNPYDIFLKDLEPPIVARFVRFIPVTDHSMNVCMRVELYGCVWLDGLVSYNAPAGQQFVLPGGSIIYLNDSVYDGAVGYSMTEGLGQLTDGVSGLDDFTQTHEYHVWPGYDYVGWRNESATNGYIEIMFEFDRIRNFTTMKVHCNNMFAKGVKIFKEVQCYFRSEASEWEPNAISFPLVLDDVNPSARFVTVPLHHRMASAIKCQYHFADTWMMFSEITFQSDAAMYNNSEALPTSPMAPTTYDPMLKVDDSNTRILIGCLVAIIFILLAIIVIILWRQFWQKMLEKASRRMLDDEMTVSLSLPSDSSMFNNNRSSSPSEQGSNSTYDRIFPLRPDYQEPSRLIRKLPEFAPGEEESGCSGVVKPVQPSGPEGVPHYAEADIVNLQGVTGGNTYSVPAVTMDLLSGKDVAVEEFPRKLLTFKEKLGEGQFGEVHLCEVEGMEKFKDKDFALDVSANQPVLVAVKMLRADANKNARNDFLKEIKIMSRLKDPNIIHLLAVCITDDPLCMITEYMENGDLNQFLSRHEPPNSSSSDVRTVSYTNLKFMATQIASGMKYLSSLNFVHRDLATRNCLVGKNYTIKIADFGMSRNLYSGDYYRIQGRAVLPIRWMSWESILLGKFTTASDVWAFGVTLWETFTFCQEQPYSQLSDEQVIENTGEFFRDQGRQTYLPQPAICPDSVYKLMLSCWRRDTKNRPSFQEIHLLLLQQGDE
Description: Inhibition of TEL-DDR2 (unknown origin) expressed in mouse BA/F3 cells assessed as growth inhibition after 72 hrs by CellTiter-Glo or CCK-8 assay

BaF3 [8] = details: Homo sapiens; remark: listed apart in the source
Description: Inhibition of BCR/ABL p210-T315I mutant (unknown origin) expressed in mouse BA/F3 cells assessed as growth inhibition after 72 hrs by CellTiter-Glo or CCK-8 assay

BaF3 [9] = details: Homo sapiens; remark: listed apart in the source
Description: Inhibition of BCR/ABL p210-E255K mutant (unknown origin) expressed in mouse BA/F3 cells assessed as growth inhibition after 72 hrs by CellTiter-Glo or CCK-8 assay

[10] = Antiproliferative activity against human MOLM14 cells assessed as cell viability after 72 hrs by CellTiter-Glo or CCK-8 assay; format: functional; details: MOLM-14, 72 h
[11] = target: Tyrosine-protein kinase Blk (Homo sapiens) (UniProt P51451); details: BaF3
Description: Inhibition of TEL-BLK (unknown origin) expressed in mouse BA/F3 cells assessed as growth inhibition after 72 hrs by CellTiter-Glo or CCK-8 assay

HEL = assay: Antiproliferative activity against human HEL cells assessed as cell viability after 72 hrs by CellTiter-Glo or CCK-8 assay; format: functional
[12] = Antiproliferative activity against […] CHL cells assessed as cell viability after 72 hrs by CellTiter-Glo or CCK-8 assay; format: cell-based, Cricetulus griseus; details: chinese hamster
[13] = Antiproliferative activity against human U937 cells assessed as cell viability after 72 hrs by CellTiter-Glo or CCK-8 assay; format: functional; details: U-937, 72 h
K562 = assay: Antiproliferative activity against human K562 cells assessed as cell viability after 72 hrs by CellTiter-Glo or CCK-8 assay; format: functional; details: K562, 72 h
[14] = target: Tyrosine-protein kinase Lck (Homo sapiens) (UniProt P06239); details: BaF3
Description: Inhibition of TEL-LCK (unknown origin) expressed in mouse BA/F3 cells assessed as growth inhibition after 72 hrs by CellTiter-Glo or CCK-8 assay

[15] = target: Proto-oncogene tyrosine-protein kinase Src (Homo sapiens, UniProt P12931); details: BaF3
Proto-oncogene tyrosine-protein kinase Src, sequence (P12931 2-536 limits assumed): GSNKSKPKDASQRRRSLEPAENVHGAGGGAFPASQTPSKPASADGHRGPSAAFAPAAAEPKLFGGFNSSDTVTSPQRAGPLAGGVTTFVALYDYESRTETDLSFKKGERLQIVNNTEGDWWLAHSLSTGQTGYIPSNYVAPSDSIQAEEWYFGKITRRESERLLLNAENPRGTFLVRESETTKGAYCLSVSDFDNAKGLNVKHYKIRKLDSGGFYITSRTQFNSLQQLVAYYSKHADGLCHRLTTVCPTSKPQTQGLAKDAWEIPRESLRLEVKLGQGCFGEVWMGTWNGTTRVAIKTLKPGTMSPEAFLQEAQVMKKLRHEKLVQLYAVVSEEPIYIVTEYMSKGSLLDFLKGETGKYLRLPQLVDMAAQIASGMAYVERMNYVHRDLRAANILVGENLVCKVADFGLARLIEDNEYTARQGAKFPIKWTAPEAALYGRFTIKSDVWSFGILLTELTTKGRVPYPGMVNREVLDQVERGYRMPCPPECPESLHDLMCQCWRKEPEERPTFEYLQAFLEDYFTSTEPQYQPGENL
Description: Inhibition of TEL-SRC (unknown origin) expressed in mouse BA/F3 cells assessed as growth inhibition after 72 hrs by CellTiter-Glo or CCK-8 assay

Tyrosine-protein kinase Blk (Homo sapiens), sequence (P51451 2-505 limits assumed): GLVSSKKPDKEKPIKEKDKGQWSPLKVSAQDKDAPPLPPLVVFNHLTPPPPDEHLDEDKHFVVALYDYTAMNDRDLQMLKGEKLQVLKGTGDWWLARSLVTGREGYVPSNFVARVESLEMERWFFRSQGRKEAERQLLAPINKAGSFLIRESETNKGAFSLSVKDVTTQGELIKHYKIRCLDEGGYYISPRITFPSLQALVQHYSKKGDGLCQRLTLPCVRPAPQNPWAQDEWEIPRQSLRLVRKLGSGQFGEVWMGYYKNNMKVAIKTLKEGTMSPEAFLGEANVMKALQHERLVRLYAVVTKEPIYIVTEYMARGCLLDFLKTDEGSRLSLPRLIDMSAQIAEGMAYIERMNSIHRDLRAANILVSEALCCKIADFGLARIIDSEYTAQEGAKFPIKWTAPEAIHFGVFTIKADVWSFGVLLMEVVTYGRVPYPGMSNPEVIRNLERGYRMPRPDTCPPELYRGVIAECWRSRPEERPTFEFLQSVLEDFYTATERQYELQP
Tyrosine-protein kinase HCK (Homo sapiens), sequence (P08631 2-526 limits assumed): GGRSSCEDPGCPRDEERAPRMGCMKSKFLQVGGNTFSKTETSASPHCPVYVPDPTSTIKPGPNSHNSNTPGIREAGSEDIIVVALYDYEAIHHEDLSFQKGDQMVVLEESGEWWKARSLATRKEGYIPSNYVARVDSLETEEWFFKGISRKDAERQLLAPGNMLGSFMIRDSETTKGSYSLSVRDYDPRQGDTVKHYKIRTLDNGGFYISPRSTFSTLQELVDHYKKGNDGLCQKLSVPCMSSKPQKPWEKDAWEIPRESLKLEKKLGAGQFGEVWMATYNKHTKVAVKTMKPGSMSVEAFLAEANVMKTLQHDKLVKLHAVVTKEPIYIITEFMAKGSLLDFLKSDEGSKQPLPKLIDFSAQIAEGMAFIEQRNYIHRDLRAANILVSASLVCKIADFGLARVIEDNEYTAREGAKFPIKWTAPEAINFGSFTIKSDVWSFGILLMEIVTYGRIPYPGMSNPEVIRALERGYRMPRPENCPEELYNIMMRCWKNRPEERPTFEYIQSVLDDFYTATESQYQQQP
Epithelial discoidin domain-containing receptor 1, sequence (Q08345 whole entry, the tested form may be a part): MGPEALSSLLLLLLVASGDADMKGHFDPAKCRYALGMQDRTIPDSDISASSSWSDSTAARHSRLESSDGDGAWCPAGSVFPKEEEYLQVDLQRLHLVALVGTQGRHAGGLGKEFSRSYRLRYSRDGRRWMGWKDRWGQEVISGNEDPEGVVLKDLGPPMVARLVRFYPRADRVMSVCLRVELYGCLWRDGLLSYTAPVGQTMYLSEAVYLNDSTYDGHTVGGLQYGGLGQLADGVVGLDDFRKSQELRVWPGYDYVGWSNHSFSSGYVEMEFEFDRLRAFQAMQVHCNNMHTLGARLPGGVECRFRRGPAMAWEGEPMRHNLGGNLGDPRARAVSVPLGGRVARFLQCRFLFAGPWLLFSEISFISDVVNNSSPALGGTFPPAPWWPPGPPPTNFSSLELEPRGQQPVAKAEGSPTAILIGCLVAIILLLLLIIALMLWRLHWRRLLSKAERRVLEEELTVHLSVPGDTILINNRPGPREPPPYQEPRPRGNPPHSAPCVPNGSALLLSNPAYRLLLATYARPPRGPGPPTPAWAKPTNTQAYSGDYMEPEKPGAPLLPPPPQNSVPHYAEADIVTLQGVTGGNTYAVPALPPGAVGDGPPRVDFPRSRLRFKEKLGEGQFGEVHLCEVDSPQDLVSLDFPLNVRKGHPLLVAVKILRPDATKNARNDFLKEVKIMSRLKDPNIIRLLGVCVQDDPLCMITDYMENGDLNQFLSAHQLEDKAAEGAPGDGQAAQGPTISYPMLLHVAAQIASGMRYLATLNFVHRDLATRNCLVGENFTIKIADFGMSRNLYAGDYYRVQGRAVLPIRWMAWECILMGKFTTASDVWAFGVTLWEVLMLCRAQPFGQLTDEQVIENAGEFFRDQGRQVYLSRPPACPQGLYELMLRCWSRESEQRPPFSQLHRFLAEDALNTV
Tyrosine-protein kinase Lck (Homo sapiens), sequence (P06239 2-509 limits assumed): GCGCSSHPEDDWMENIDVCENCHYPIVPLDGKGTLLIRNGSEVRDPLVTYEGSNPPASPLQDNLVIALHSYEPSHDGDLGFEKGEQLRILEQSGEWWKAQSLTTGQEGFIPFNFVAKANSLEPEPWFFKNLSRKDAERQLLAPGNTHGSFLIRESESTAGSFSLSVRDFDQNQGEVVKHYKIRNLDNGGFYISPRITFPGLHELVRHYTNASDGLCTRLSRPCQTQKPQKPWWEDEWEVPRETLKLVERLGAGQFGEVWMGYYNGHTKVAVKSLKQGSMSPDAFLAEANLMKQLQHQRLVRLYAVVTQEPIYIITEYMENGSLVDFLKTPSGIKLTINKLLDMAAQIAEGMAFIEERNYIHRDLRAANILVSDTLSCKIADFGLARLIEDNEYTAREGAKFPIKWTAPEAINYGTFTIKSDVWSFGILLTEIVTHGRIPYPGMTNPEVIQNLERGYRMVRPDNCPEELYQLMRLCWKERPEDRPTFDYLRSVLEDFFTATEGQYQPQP

Compound | GI50 (BaF3 [1]) [nM] | GI50 (MV4-11) [nM] | GI50 [2] [nM] | GI50 [3] [nM] | GI50 at 72 h [4] [nM] | GI50 [5] [nM] | GI50 [6] [nM] | GI50 [7] [nM] | GI50 (BaF3 [8]) [nM] | GI50 (BaF3 [9]) [nM] | GI50 [10] [nM] | GI50 [11] [nM] | GI50 (HEL) [nM] | GI50 at 72 h [12] [nM] | GI50 [13] [nM] | GI50 (K562) [nM] | GI50 [14] [nM] | GI50 [15] [nM]
Cc1nc(Nc2ncc(C(=O)Nc3c(C)cccc3Cl)s2)cc(N2CCN(CCO)CC2)n1 [DASATINIB] | 10 | 3600 | 39 | 3000 | > 10000 | < 0.3 | < 0.3 | 3000 | 9940 | 17 | 2300 | 5 | 5300 | 270 | > 10000 | < 0.3 | – | –
Cc1cn(-c2cc(NC(=O)c3ccc(C)c(Nc4nccc(-c5cccnc5)n4)c3)cc(C(F)(F)F)c2)cn1 [NILOTINIB] | 54.6 | > 10000 | 4100 | – | 2100 | 1 | 16 | 1400 | > 10000 | 21 | > 10000 | 1300 | 3900 | 4200 | > 10000 | 2 | 870 | 470
Cc1ccc(NC(=O)c2ccc(CN3CCN(C)CC3)cc2)cc1Nc1nccc(-c2cccnc2)n1 [IMATINIB] | 855 | > 10000 | 9700 | – | 6700 | 160 | 240 | 7700 | > 10000 | 1930 | > 10000 | 4100 | 5300 | > 10000 | > 10000 | 140 | – | –

From ChEMBL document CHEMBL3779840, “Discovery of 2-((3-Amino-4-methylphenyl)amino)-N-(2-methyl-5-(3-(trifluoromethyl)benzamido)phenyl)-4-(methylamino)pyrimidine-5-carboxamide (CHMFL-ABL-053) as a Potent, Selective, and Orally Available BCR-ABL/SRC/p38 Kinase Inhibitor for Chronic Myeloid Leukemia” (J Med Chem, 2016)
